Results reported in article PMC4453034, “A functional comparison of the domestic cat bitter receptors Tas2r38 and Tas2r43 with their human orthologs” (BMC Neuroscience, 2015).
Entries after “also recorded” stand apart in the source; their conditions may differ. Where a name gives a salt, the structure may show the parent alone. Read-outs that look alike come from different tables or passages of the source.

Experiments:
human TAS2R16 = molecular target: T1, human TAS2R16 (Homo sapiens, UniProt Q9NYV7); experiment: Ca2+ flux assay, negative control receptor; conditions: PTC 100 μM, C4-HSL
T1 sequence (Q9NYV7 1-291): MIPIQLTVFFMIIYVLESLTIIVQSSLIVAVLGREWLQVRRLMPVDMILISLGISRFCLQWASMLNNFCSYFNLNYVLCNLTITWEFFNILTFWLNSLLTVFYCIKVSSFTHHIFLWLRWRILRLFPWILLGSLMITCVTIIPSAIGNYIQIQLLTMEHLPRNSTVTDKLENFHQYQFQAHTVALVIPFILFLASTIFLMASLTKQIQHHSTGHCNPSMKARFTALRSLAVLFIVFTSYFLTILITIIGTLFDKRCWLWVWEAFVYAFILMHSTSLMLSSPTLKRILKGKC

human TAS2R38 [1] = molecular target: T2, human TAS2R38 (Homo sapiens, UniProt P59533); experiment: Ca2+ flux assay, transiently transfected cells with Gα16-gust44; conditions: for calcium flux response of human TAS2R38: PTC 100 μM, PROP 30 μM, C4-HSL 200 μM; for Hill Slope TAS2R38 human: calcium flux dose response
T2 sequence (P59533 1-333): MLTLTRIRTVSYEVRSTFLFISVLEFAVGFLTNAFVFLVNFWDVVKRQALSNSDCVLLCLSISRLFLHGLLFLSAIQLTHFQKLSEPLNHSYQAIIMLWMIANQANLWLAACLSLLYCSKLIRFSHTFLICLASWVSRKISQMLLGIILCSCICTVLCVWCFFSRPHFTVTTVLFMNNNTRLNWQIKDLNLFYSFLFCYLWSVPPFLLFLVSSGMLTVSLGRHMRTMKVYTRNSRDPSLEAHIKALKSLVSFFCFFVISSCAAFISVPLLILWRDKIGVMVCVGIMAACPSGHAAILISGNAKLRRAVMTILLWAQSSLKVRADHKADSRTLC

cat Tas2r38 = molecular target: T3, cat Tas2r38 (Felis catus, UniProt Z9BUK5U3L3); experiment: as above; conditions: for calcium flux response of cat Tas2r38: PTC 100 μM, PROP 30 μM, C4-HSL 200 μM
T3 sequence (Z9BUK5U3L3 1-334): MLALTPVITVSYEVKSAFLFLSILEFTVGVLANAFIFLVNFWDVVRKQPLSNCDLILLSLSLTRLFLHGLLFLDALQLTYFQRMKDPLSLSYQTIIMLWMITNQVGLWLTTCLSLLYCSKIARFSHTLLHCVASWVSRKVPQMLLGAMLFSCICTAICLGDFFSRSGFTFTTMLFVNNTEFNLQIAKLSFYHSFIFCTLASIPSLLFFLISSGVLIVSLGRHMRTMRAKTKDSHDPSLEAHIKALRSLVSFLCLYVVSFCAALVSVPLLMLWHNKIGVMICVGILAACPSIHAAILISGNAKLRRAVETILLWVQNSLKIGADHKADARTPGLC

human TAS2R43 [2] = molecular target: T4, human TAS2R43 (Homo sapiens, UniProt P59537); experiment: as above; conditions: for calcium flux response of human TAS2R43: PTC 100 μM, C4-HSL, aloin 300 μM, denatonium 1 mM, saccharin 6.7 mM; for Hill Slope TAS2R43 human: calcium flux dose response
T4 sequence (P59537 1-309): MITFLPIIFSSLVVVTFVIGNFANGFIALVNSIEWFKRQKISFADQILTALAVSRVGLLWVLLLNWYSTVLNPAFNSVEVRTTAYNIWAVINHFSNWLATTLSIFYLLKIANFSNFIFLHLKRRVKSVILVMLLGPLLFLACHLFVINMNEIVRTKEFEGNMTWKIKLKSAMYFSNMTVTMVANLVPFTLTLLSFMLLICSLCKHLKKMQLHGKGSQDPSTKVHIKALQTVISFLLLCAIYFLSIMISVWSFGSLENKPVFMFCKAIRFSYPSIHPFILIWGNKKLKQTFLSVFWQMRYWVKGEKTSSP

human TAS2R31 = molecular target: T5, human TAS2R31 (Homo sapiens, UniProt P59538); experiment: Ca2+ flux assay, probenecid specificity control; assay type: cell-based; conditions: 1 mM probenecid, one hour pre-incubation
T5 construct: expressed in transfected cells; host or cells: transiently transfected cells expressing the receptor and Gα16-gust44
T5 sequence (P59538 1-309): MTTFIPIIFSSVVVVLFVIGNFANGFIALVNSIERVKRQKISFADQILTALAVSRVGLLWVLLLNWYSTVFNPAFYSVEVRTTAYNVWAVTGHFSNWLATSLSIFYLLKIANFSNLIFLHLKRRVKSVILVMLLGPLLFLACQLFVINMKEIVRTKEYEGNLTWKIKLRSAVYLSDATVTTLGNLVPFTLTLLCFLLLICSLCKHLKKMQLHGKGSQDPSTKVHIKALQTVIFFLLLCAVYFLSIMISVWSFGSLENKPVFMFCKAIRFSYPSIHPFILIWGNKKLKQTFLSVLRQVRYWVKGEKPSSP

cat Tas2r43 [3] = molecular target: cat Tas2r43 (Felis catus, UniProt A0ABI8A390); experiment: Ca2+ flux assay, transiently transfected cells with Gα16-gust44; conditions: for calcium flux response of cat Tas2r43: PTC 100 μM, aloin 300 μM, denatonium 1 mM, saccharin 6.7 mM; for Hill Slope Tas2r43 cat: calcium flux dose response
cat Tas2r43 (Felis catus, UniProt A0ABI8A390), sequence (A0ABI8A390 entry or part of it): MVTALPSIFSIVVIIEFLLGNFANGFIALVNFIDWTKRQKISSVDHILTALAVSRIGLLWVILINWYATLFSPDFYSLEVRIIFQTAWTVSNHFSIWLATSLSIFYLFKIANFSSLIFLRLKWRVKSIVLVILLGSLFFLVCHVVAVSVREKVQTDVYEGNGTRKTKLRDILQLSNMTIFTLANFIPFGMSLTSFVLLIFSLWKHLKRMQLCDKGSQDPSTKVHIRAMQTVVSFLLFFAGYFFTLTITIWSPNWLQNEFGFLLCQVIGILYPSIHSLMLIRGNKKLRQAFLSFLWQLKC

human TAS2R43 [4] = molecular target: T4, human TAS2R43; set-up: created similarly, expressing full-length receptor under the control of a CMV promoter; expressed in transfected cells; host or cells: mammalian cells (ATCC CRL-11268), co-transfected with Gα16-gust44; conditions: published value for human TAS2R43; cited from earlier work
human TAS2R38 [5] = molecular target: T2, human TAS2R38; set-up: created similarly, expressing full-length receptor under the control of a CMV promoter; expressed in transfected cells; host or cells: mammalian cells (ATCC CRL-11268), co-transfected with Gα16-gust44; method as in PMID 15723792; conditions: published value for human TAS2R38; cited from earlier work
cat Tas2r43 [6] = experiment: Ca2+ flux assay, transiently transfected cells with Gα16-gust44; conditions: PTC 100 μM, aloin 300 μM, denatonium 1 mM, saccharin 6.7 mM
[7] = 1 mM probenecid, one hour pre-incubation, 33 μM PTC
[8] = 1 mM probenecid, one hour pre-incubation, 300 μM aloin
[9] = 1 mM probenecid, one hour pre-incubation, 1 mM denatonium

## CCCC(=O)N[C@H]1CCOC1=O [C4-HSL]
Human TAS2R16
  calcium flux response of human TAS2R16: no response
Human TAS2R38 [1]
  calcium flux response of human TAS2R38: responded weakly but specifically
Cat Tas2r38
  calcium flux response of cat Tas2r38: responded weakly but specifically
Human TAS2R43 [2]
  calcium flux response of human TAS2R43: no response

## CCCN(CCC)S(=O)(=O)c1ccc(C(=O)O)cc1 [probenecid]
Human TAS2R31
  probenecid effect on human TAS2R31 response to saccharin: stimulation of flux
Human TAS2R38 [1]; [7]
  probenecid effect on human TAS2R38 response to PTC: failed to induce a calcium flux; also recorded: inhibited completely
Cat Tas2r38; [7]
  probenecid effect on cat Tas2r38 response to PTC: failed to induce a calcium flux; also recorded: inhibited completely
Human TAS2R43 [2]; [8]
  probenecid effect on human TAS2R43 response to aloin: inhibited
Human TAS2R43 [2]; [9]
  probenecid effect on human TAS2R43 response to denatonium: inhibited
Cat Tas2r43 [3]; [8]
  probenecid effect on cat Tas2r43 response to aloin: inhibited
Cat Tas2r43 [3]; [9]
  probenecid effect on cat Tas2r43 response to denatonium: inhibited

## CC[N+](CC)(CC(=O)Nc1c(C)cccc1C)Cc1ccccc1 [Denatonium, denatonium benzoate]
Human TAS2R43 [2]
  EC50: 1210 µM
  calcium flux response of human TAS2R43: responded
  Hill Slope TAS2R43 human: 1.3
Cat Tas2r43 [3]
  calcium flux response of cat Tas2r43: responded
  Hill Slope Tas2r43 cat: 1.7
Cat Tas2r43 [3]; from EC50 values
  fold lower EC50, cat Tas2r43 vs human TAS2R43: greater than 5 fold
Human TAS2R43 [4]
  EC50: 300 µM

## CCCc1cc(=O)[nH]c(=S)[nH]1 [PROP, 6-propyl-2-thiouracil]
Human TAS2R38 [1]
  EC50: 2.2 µM
  calcium flux response of human TAS2R38: responded
  Hill Slope TAS2R38 human: 1.59
Human TAS2R38 [5]
  EC50: 2.1 µM

## NC(=S)Nc1ccccc1 [PTC, phenylthiocarbamide]
Human TAS2R16
  calcium flux response of human TAS2R16: did not respond
Human TAS2R38 [1]
  EC50: 2.3 µM
  calcium flux response of human TAS2R38: strong calcium flux
  Hill Slope TAS2R38 human: 1.0
Human TAS2R38 [1]; PTC at 100 μM
  peak fluorescence over baseline: 27%
Cat Tas2r38
  calcium flux response of cat Tas2r38: strong calcium flux
Cat Tas2r38; PTC at 100 μM
  peak fluorescence over baseline: 40%
Cat Tas2r38; calcium flux dose response
  Hill Slope Tas2r38 cat: 2.6
Cat Tas2r38; from EC50 values
  fold less concentration sensitive, cat Tas2r38 vs human TAS2R38: at least 10 fold
Cat Tas2r38; read-out: EC50 Tas2r38 cat, calcium flux dose response, 22 h post-transfection
  EC50: 47 µM
Human TAS2R43 [2]
  calcium flux response of human TAS2R43: did not respond
Cat Tas2r43 [6]
  calcium flux response of cat Tas2r43: did not respond
Human TAS2R38 [5]
  EC50: 1.1 µM

## O=C1c2c(O)cccc2C([C@@H]2O[C@H](CO)[C@@H](O)[C@H](O)[C@H]2O)c2cc(CO)cc(O)c21 (stereo partly shown) [Aloin, aloin]
Human TAS2R43 [2]
  EC50: 35 µM
  calcium flux response of human TAS2R43: responded
  Hill Slope TAS2R43 human: 0.8
Cat Tas2r43 [3]
  calcium flux response of cat Tas2r43: responded
  Hill Slope Tas2r43 cat: 1.0
Cat Tas2r43 [3]; from EC50 values
  fold more sensitive, human TAS2R43 vs cat Tas2r43: about 10 fold
Human TAS2R43 [4]
  EC50: 1.2 µM

## O=C1NS(=O)(=O)c2ccccc21 [Saccharin, saccharin sodium salt hydrate]
Cat Tas2r43 [6]
  calcium flux response of cat Tas2r43: did not elicit a response
